The record followed here is patent publication US5198568A, “Compounds useful in enzymatic resolution systems and their preparation” (priority 1991, dated 1993).

What all share (type): biochemical
The target of data set [1] is T1, Protease XXVII, Nagarse (Sigma, Enzyme D) (Bacillus amyloliquefaciens, UniProt P00782).
T1 construct: purchased Sigma
T1 sequence (P00782 108-382): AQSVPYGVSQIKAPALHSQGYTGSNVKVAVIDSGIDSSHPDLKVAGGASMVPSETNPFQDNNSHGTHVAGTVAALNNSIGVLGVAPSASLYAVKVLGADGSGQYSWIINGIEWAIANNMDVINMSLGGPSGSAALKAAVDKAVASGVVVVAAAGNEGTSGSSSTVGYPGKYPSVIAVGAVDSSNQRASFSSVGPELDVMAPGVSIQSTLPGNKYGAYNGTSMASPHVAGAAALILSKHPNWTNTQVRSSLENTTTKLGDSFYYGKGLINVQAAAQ
The data set can be described thus: Homogeneous aqueous enzymatic resolution (ester hydrolysis), Enzyme D. As to conditions: 100 mg enzyme D, 10 mmol ester in 100 ml 0.2 M phosphate buffer pH 7.0, 20-22 C, 20 hours.

The subject of data set [2] is Protease XXIII from Aspergillus oryzae (Sigma, Enzyme A). The experiment in a line: Homogeneous aqueous enzymatic resolution (ester hydrolysis), Enzyme A. As to conditions: acid product; 100 mg enzyme A, pH 7.0, 20-22 C, 20 hours. How it is done:
No further purification was performed.

In data set [3] the test system is protease Prozyme 6 from Aspergillus oryzae (Amano, Enzyme F). The experiment in a line: Asymmetric hydrolysis in an extractive dispersion reactor, Enzyme F. As to conditions: 100 mg Prozyme 6, 3.38 gm ester in 100 ml buffer pH 7.0 plus 100 ml hexane, room temperature, 3.5 hours. How it is done:
In this Example, the hexane was dispersed in the reaction vessel to extract the inhibitory ibuprofen acid as it is formed. The reaction was started by adding 100 mg of the protease from the fungus Aspergillus oryzae (from Amano Enzyme Corporation, Prozyme 6, 60,000 units per mg of solid).
After 3.5 hours at room temperature with vigorous stirring, the solution was acidified to pH 2 and extracted with 2 volumes of hexane. The aqueous phase was saved for subsequent workup. The hexane phase was dried over MgSO4 and evaporated to dryness. The resolved ibuprofen product so recovered consisted of 490 mg of white powder, indicating 24% conversion. The optical rotation was -0.568° (c=1.015 in ethanol), indicating the R isomer of ibuprofen.

The test system of data set [4] is lipase from Candida cylindracea (Meito Sangyo, Lipase OF). The experiment in a line: Activity of the carrier lipase against the ester.
The subject of data set [5] is protease Prozyme 6 from Aspergillus oryzae (Amano, Enzyme F). The data set can be described thus: Homogeneous aqueous enzymatic resolution (ester hydrolysis), Enzyme F. On the procedure:
(§1) The enzymatic reaction mixtures were capped and briefly shaken until all the substrate had dissolved, and the enzyme had completely dissolved or dispersed. […] Evaporation of the ether left a white solid. Rotations were measured at c=1 in CHCl3.
as §1
The reaction was started by adding 100 mg of the protease (F) from the fungus Aspergillus oryzae (from Amano Enzyme Corporation, Prozyme 6, 60,000 units per mg of solid).
After 20 hours at room temperature, the solution was acidified to pH 2 and extracted with 3 volumes of diethyl ether. The aqueous phase was saved for subsequent workup. The ether phase was washed with two volumes of distilled water and then one volume of saturated sodium chloride, and then it was dried over MgSO4 and subsequently evaporated to dryness. The resolved ibuprofen product recovered was 930 mg of white powder, indicating 45% conversion of racemic ester to acid. The optical rotation was -0.580° (measured at c=1 in ethanol), indicating the R isomer of ibuprofen.
35 mg of protease Enzyme F, as the commercial preparation Prozyme 6, were added to the aqueous solution. The reaction flask was capped, and briefly shaken until all the enzyme had dissolved or dispersed. […] The resulting mixture was diluted with one volume of water and was extracted with diethyl ether (2 times 200 ml). The ether layers were combined and backwashed with water (2 times 200 ml), saturated NaCl solution (200 ml), and then dried over MgSO4.
In this control run, a 0.5M ester solution of (1) was prepared in 325 ml of 0.1M sodium phosphate buffer (pH 7.0). The reaction was started by adding 3 gm of the above enzyme (F). The pH was controlled at 7.0 with 8.22M sodium hydroxide. After 6.49 hours at 30 ° C., 6.63 ml of hydroxide were added, indicating 37.7% conversion. The reaction was allowed to continue overnight and, after 23.1 hours, a total of 7.2 ml of sodium hydroxide were added, indicating 40.9% conversion.

Data set [6] has the same test system. The data set can be described thus: Asymmetric hydrolysis in an extractive membrane reactor, enzyme not associated with the membrane, Enzyme F. The source says:
Hexane was recirculated through the lumen or bores of the fibers in the module. The aqueous solution in the shell contained the enzyme and ester. While the cellulose membrane is water-wet, the membrane rejects the macromolecular enzyme (molecular weight 18,000). Therefore, the enzyme resides solely in the aqueous ester solution. As the ibuprofen acid was formed, it was extracted into the hexane phase, thereby reducing the effect of product (ibuprofen acid) inhibition on the activity of the enzyme.
The aqueous phase used to extract the ibuprofen acid from hexane in this module contained 0.1M sodium carbonate buffer at pH 9.5. The pH was maintained at this value by the addition of 8.22M sodium hydroxide as required.
In this Example, the aqueous stream in the extractive membrane reactor module consisted of a solution of the sulfomethyl ester of ibuprofen (1), which solution was prepared by adding 32.51 gm of the sodium salt of the ester (at 75% chemical purity) to 1000 ml of 0.1M sodium phosphate buffer (pH 7.0). The reaction was started by adding 2 gm of the protease (F) from the fungus Aspergillus oryzae (from Amano Enzyme Corporation, Prozyme 6, 60,000 units per gm of solid). […]
The optical rotation of the recovered product was measured by polarimetry; the experimentally determined value for [α]D was -56.7° (measured at c=0.815 in ethanol), thereby indicating the R isomer of ibuprofen. The sample was also analyzed by chiral HPLC using a Bakerbond DNBPG (covalent) column (4.6×250 mm), with 96.9% hexane:3.0% 2-propanol:0.1% acetonitrile as the mobile phase at 2 ml/min after derivatization with naphthalene amine. […] The optical purity or enantiomeric excess of this R ibuprofen sample as determined by this chiral HPLC procedure was 99.3% (i.e., enantiomeric excess of R ibuprofen).
The aqueous phase at pH 7.0 (as recovered from the extractive membrane reactor) was mixed with 280 gm of sodium chloride to salt out the remaining unconverted ester. […] The optical rotation (as measured by polarimetry) was [α]D =+57.4° (c=1.29 in ethanol), indicating the S isomer of ibuprofen. […]

Data set [7] has as its target T2, Protease VIII, Subtilopeptidase A (subtilisin Carlsberg) (Sigma, Enzyme B) (Bacillus licheniformis, UniProt P00780).
T2 sequence (P00780 106-379): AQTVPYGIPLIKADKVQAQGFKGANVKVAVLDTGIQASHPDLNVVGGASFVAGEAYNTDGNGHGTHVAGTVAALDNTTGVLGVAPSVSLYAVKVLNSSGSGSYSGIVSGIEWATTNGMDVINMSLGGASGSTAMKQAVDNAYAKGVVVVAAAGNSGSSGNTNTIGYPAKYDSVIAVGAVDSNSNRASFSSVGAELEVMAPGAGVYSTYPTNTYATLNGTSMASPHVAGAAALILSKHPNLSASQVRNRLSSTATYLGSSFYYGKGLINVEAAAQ
The data set can be described thus: pH-stat rate of hydrolysis of single enantiomers, Enzyme B. Particulars: 50 mM single enantiomer, 50 mM buffer pH 7.6, enzyme B. How it is done:
15 ml of a solution containing one enantiomer of the ester at a concentration of 50 mM, and Na3 PO4 buffer at 50 mM and pH 7.6 wa observed using pH stat device 0.1 ml of a 50 mg/ml solution of enzyme B, made up from
(§2) the commercially available preparation in 50 mM Na3 PO4 buffer at pH 7.6, were added. Rates of hydrolysis of both enantiomers of the ester compound were determined for the enzyme. The ratio of the rates of hydrolysis for the two enantiomers for the two enantiomers with respect to the enzyme indicate the stereospecificity of that enzyme's hydrolytic action on the racemic mixture of the ester. No evidence for the hydrolysis of the acetylthio ester portion of the substrate molecule was found.

For data set [8], the system named is Protease XXIV, bacterial protease (Sigma, Enzyme J). The data set can be described thus: pH-stat rate of hydrolysis of single enantiomers, Enzyme J. Particulars: 50 mM single enantiomer, 50 mM buffer pH 7.6, enzyme J. On the procedure: as §2, with “15 ml of a solution containing one enantiomer of the ester at a concentration of 50 mM, and Na3 PO4 buffer at 50 mM and pH 7.6 was observed using a pH stat device. 0.1 ml of a 50 mg/ml solution of Enzyme J, made up from the commercially” for “the commercially”

Data set [9] has as its system Protease XIV from Streptomyces griseus (Sigma, Enzyme I). The experiment in a line: pH-stat rate of hydrolysis of single enantiomers, Enzyme I. Particulars: 50 mM single enantiomer, 50 mM buffer pH 7.6, enzyme I. On the procedure: as §2, with “15 ml of a solution containing one enantiomer of the ester at a concentration of 50 mM, and Na3 PO4 buffer at 50 mM and pH 7.6 was observed using a pH stat device. 0.1 ml of a 50 mg/ml solution of protease enzyme I, made up from the commercially” for “the commercially”, “for the protease enzyme. The” for “for the enzyme. The”

For data set [10], the system named is Protease XXIII from Aspergillus oryzae (Sigma, Enzyme A). The experiment in a line: pH-stat rate of hydrolysis of single enantiomers, Enzyme A. As to conditions: 50 mM single enantiomer, 50 mM buffer pH 7.6, enzyme A. How it is done: 15 ml of a solution containing one enantiomer of the ester at a concentration of 50 mM, and Na3 PO4 buffer at 50 mM and pH 7.6 was observed using a pH stat device. 0.1 ml of a 50 mg/ml solution of enzyme A, made up from
Rates of hydrolysis of both enantiomers of the ester compound were
determined for the enzyme. The ratio of the rates of hydrolysis for the
two enantiomers for the two enantiomers with respect to the enzyme
indicate the stereospecificity of that enzyme's hydrolytic action on the […]

The target of data set [11] is T1, Protease XXVII, Nagarse (Sigma, Enzyme D). The experiment in a line: pH-stat rate of hydrolysis of single enantiomers, Enzyme D. As to conditions: 50 mM single enantiomer, 50 mM buffer pH 7.6, enzyme D. How it is done: as §2, with “15 ml of a solution containing one enantiomer of the ester at a concentration of 50 mM, and Na3 PO4 buffer at 50 mM and pH 7.6 was observed using a pH stat device. 0.1 ml of a 50 mg/ml solution of enzyme D, made up from the commercially” for “the commercially”, “of the thioacetyl ester portion” for “of the acetylthio ester portion”

The mark [12] stands for this setting: chiral HPLC, after 50% conversion.

Where a name gives a salt, the structure may show the parent alone. Bounds are passed on as bounds.

For `CC(C)Cc1ccc(C(C)C(=O)OCS(=O)(=O)O)cc1` (racemic) [Compound 1, Sodium Salt of 4-Sulfomethyl Ester of 2-(4-Isobutylphenyl)propanoic Acid], the “% CONVERSION” value in data set [1] stood at 34.0%. Besides, the “% e.e.” value in [2] is on record as above 99%. In addition, the conversion is 24% in data set [3] and 40.9% in data set [5] (0.5M ester, 3 gm enzyme F, pH 7.0, 30 C, after 23.1 hours, 500000 µM). The “activity of the lipase against the ester” value in data set [4] was “inactive”. Also, the “conversion of racemic ester to acid” value in data set [5] (100 mg Prozyme 6 (F), 3.22 gm ester in 100 ml 0.2M sodium phosphate pH 7.0, room temperature, 20 hours) is reported as 45%. Further, in [6] (2 gm Prozyme 6, 32.51 gm ester in 1000 ml 0.1M sodium phosphate pH 7.0, hexane extractant, room temperature, 6.3 hours), the “conversion of the racemic ester to ibuprofen acid” value turned out to be 50%. Also, the “enantiomeric excess of R ibuprofen (acid product)” value in [6] (setting [12]) is 99.3%. Moreover, the “enantiomeric excess of S ibuprofen (from unconverted ester hydrolyzed at pH 12)” value in data set [6] (setting [12]) is 98.9%.

Consider `CC(=O)SC[C@@H](C)C(=O)OCS(=O)(=O)O` [Compound 14, Potassium Salt of the Sulfomethyl Ester of D-(-)-S-3-Acetylthio-2-methylpropanoic Acid], for which the Rate of hydrolysis in data set [7] was 65 umols/hr/mg; in data set [8], 61 umols/hr/mg; in data set [9] it was 63 umols/hr/mg; in data set [10], 5.3 umols/hr/mg; in data set [11], 27 umols/hr/mg.

As to `CC(=O)SC[C@H](C)C(=O)OCS(=O)(=O)O` [Compound 15, Potassium Salt of the Sulfomethyl Ester of L-(+)-S-3-Acetylthio-2-methylpropanoic Acid], the Rate of hydrolysis worked out at 135 umols/hr/mg in data set [7]; 65 umols/hr/mg in [8]; 105 umols/hr/mg in [9]; 12 umols/hr/mg in [10]; 29 umols/hr/mg in data set [11].
